Laboratory results: patent US12083131B2 (priority 2014, dated 2024)

Tests used:
SRSE = assay: Continuous infusion allopregnanolone under emergency-use INDs for SRSE
[1] = test system: severe postpartum depression (PPD); assay: Clinical study of allopregnanolone injection in adult female patients with severe postpartum depression
TBI = assay: Treatment of subjects with TBI at the starting dose; conditions: starting dose (29 μg/kg/hr), 11 subjects with TBI
essential tremor = assay: Clinical trial of allopregnanolone injection in essential tremor (Stage One placebo-controlled crossover, low-dose; Stage Two open-label, high-dose)
[2] = Other clinical studies and experience to date with intravenous allopregnanolone; conditions: all AEs reported to date
[3] = in vivo; cited from earlier work

Row | Structure (SMILES) | Drug-related SAEs at the target/maximum level of exposure (SRSE; 150 nM exposure, 6 subjects with SRSE, continuous infusion) | Drug-related serious adverse events at maintenance dose (SRSE; 150 mcg/kg/hour, six subjects with SRSE) | Response (relief from symptoms) after treatment ([1]; after treatment) | Clinical Global Impression-Improvement (CGI-I) scale ([1]; all four patients) | Remission as measured by HAM-D during the treatment period ([1]; all four patients) | Tolerability ([1]; all patients, on therapy or during the 30-day follow-up period) | Time to improvement of symptoms after treatment ([1]; four patients (e.g., within 24 hours, within 12 hours after treatment)) | Mean HAM-D score at baseline ([1]; four patients, baseline, >24.0 is severe) | Mean HAM-D score by the end of the treatment period ([1]; four patients, end of treatment period, below 7.0 is symptom-free) | Time to improvement in depression after administration ([1]; four women with severe PPD) | Improvement in depression, number of women ([1]; women with severe PPD, intravenous administration) | SAEs at the starting dose (TBI) | Tolerability of the maintenance dose (essential tremor; 86 mcg/kg/hour, Stage One) | Adverse events reported (essential tremor; Stage One, arms not distinguished, one case each of phlebitis, somnolence, abnormal dreams, back pain, nasal congestion, headache, fatigue, nausea, two cases of dizziness) | Sedation scores versus placebo (essential tremor; conclusion of Stage One) | Measures of activity in essential tremor (accelerometer and TETRAS scores) versus placebo (essential tremor; conclusion of Stage One, maintenance dose 86 mcg/kg/hour) | AEs reported to date [2] | Exposure of breast-feeding infant [3]
1 | CC(=O)[C@H]1CC[C@H]2[C@@H]3CC[C@H]4C[C@H](O)CC[C@]4(C)[C@H]3CC[C@]12C [allopregnanolone, 3 alpha-hydroxy-5 alpha-pregnan-20-one] | no drug-related SAEs reported | without any drug-related serious adverse events | sustained | consistent improvement | rapidly achieved remission | well-tolerated | one | 26.5 | 1.8 | ≤ 24 h | four of four | no SAEs reported | good tolerability | 10 | no clear difference | no clear difference | mild and non-serious | 
2 | Cc1ncc2n1-c1ccc(Cl)cc1C(c1ccccc1F)=NC2 [midazolam] |  |  |  |  |  |  |  |  |  |  |  |  |  |  |  |  |  | less than 0.1 % of the maternal dose
3 | CC(C)c1cccc(C(C)C)c1O [propofol] |  |  |  |  |  |  |  |  |  |  |  |  |  |  |  |  |  | less than 0.1 % of the maternal dose
